# Data: PubChem BioAssay AID1259407 (Chemical Carcinogenesis Research Information System (CCRIS), 2018)
# Calls of active or inactive are those of the source. No rule for the calls is given here.
# Tested on: CCRIS mutagenicity, Ames/micronucleus/aberration tests
# Test: CCRIS mutagenicity studies
# [1] = Test System: AMES SALMONELLA TYPHIMURIUM, Strain/Indicator: TA97, Metabolic Activation: HAMSTER, LIVER, S-9, AROCLOR 1254 (10%), Method: PREINCUBATION
# [2] = Test System: AMES SALMONELLA TYPHIMURIUM, Strain/Indicator: TA97, Metabolic Activation: NONE, Method: PREINCUBATION
# [3] = Test System: AMES SALMONELLA TYPHIMURIUM, Strain/Indicator: TA97, Metabolic Activation: RAT, LIVER, S-9, AROCLOR 1254 (10%), Method: PREINCUBATION
# [4] = Test System: AMES SALMONELLA TYPHIMURIUM, Strain/Indicator: TA98, Metabolic Activation: HAMSTER, LIVER, S-9, AROCLOR 1254 (10%), Method: PREINCUBATION
# [5] = Test System: AMES SALMONELLA TYPHIMURIUM, Strain/Indicator: TA98, Metabolic Activation: NONE, Method: PREINCUBATION
# [6] = Test System: AMES SALMONELLA TYPHIMURIUM, Strain/Indicator: TA98, Metabolic Activation: RAT, LIVER, S-9, AROCLOR 1254 (10%), Method: PREINCUBATION
# [7] = Test System: AMES SALMONELLA TYPHIMURIUM, Strain/Indicator: TA100, Metabolic Activation: HAMSTER, LIVER, S-9, AROCLOR 1254 (10%), Method: PREINCUBATION
# [8] = Test System: AMES SALMONELLA TYPHIMURIUM, Strain/Indicator: TA100, Metabolic Activation: NONE, Method: PREINCUBATION
# [9] = Test System: AMES SALMONELLA TYPHIMURIUM, Strain/Indicator: TA100, Metabolic Activation: RAT, LIVER, S-9, AROCLOR 1254 (10%), Method: PREINCUBATION
# [10] = Test System: AMES SALMONELLA TYPHIMURIUM, Strain/Indicator: TA1535, Metabolic Activation: HAMSTER, LIVER, S-9, AROCLOR 1254 (10%), Method: PREINCUBATION
# [11] = Test System: AMES SALMONELLA TYPHIMURIUM, Strain/Indicator: TA1535, Metabolic Activation: NONE, Method: PREINCUBATION
# [12] = Test System: AMES SALMONELLA TYPHIMURIUM, Strain/Indicator: TA1535, Metabolic Activation: RAT, LIVER, S-9, AROCLOR 1254 (10%), Method: PREINCUBATION
# [13] = Test System: AMES SALMONELLA TYPHIMURIUM, Strain/Indicator: TA100, Metabolic Activation: NONE, Method: STANDARD PLATE
# [14] = Test System: AMES SALMONELLA TYPHIMURIUM, Strain/Indicator: TA98, Metabolic Activation: NONE, Method: STANDARD PLATE
compound,measurement,setting,value
COc1ccc(N)cc1N,mutagenic call,[1],active; positive
same,mutagenic call,[2],inactive; negative
same,mutagenic call,"Test System: AMES SALMONELLA TYPHIMURIUM, Strain/Indicator: TA97, Metabolic Activation: RAT, LIVER, S-9, AROCLOR 1254 (4 OR 10%), Method: STANDARD PLATE",active; positive
same,mutagenic call,[3],active; positive
same,mutagenic call,[4],active; positive
same,mutagenic call,[5],active; positive
same,mutagenic call,[6],active; positive
same,mutagenic call,[7],active; positive
same,mutagenic call,[8],inactive; negative
same,mutagenic call,[9],active; positive
same,mutagenic call,[10],inactive; negative
same,mutagenic call,[11],inactive; negative
same,mutagenic call,[12],inactive; negative
same,mutagenic call,"Test System: AMES SALMONELLA TYPHIMURIUM, Strain/Indicator: TA1537, Metabolic Activation: RAT, LIVER, S-9, AROCLOR 1254 (4 OR 10%), Method: STANDARD PLATE",active; positive
same,mutagenic call,"Test System: AMES SALMONELLA TYPHIMURIUM, Strain/Indicator: TA1538, Metabolic Activation: RAT, LIVER, S-9, AROCLOR 1254 (4 OR 10%), Method: STANDARD PLATE",active; positive
same,mutagenic call,"Test System: CHINESE HAMSTER V-79, Strain/Indicator: V-79/6-THIOGUANINE, Metabolic Activation: NONE, Method: SUSPENSION/PLATE",active; positive
same,mutagenic call,"Test System: CHINESE HAMSTER V-79, Strain/Indicator: V-79/6-THIOGUANINE, Metabolic Activation: RAT, LIVER, S-9, PHENOBARBITAL AND BETA-NAPHTHOFLAVONE, Method: SUSPENSION/PLATE",inactive; negative
same,mutagenic call,"Test System: E. COLI, Strain/Indicator: WP2 UVRA, Metabolic Activation: HAMSTER, LIVER, S-9, AROCLOR 1254, Method: STANDARD PLATE",inactive; negative
same,mutagenic call,"Test System: E. COLI, Strain/Indicator: WP2 UVRA, Metabolic Activation: HAMSTER, LIVER, S-9, Method: STANDARD PLATE",inactive; negative
same,mutagenic call,"Test System: E. COLI, Strain/Indicator: WP2 UVRA, Metabolic Activation: MOUSE, LIVER, S-9, AROCLOR 1254, Method: STANDARD PLATE",inactive; negative
same,mutagenic call,"Test System: E. COLI, Strain/Indicator: WP2 UVRA, Metabolic Activation: MOUSE, LIVER, S-9, Method: STANDARD PLATE",inactive; negative
same,mutagenic call,"Test System: E. COLI, Strain/Indicator: WP2 UVRA, Metabolic Activation: NONE, Method: STANDARD PLATE",inactive; negative
same,mutagenic call,"Test System: E. COLI, Strain/Indicator: WP2 UVRA, Metabolic Activation: RAT, LIVER, S-9, AROCLOR 1254, Method: STANDARD PLATE",inactive; negative
same,mutagenic call,"Test System: E. COLI, Strain/Indicator: WP2 UVRA, Metabolic Activation: RAT, LIVER, S-9, Method: STANDARD PLATE",inactive; negative
same,mutagenic call,"Test System: MOUSE LYMPHOMA, Strain/Indicator: L5178Y (TK+/TK-), Metabolic Activation: NONE, Method: SUSPENSION/PLATE",active; positive
same,mutagenic call,"Test System: MOUSE LYMPHOMA, Strain/Indicator: L5178Y (TK+/TK-), Metabolic Activation: RAT, LIVER, S-9, AROCLOR 1254, Method: SUSPENSION/PLATE",active; positive
c1cc2c3oc3cc3ccc4c5oc5cc1c4c32,mutagenic call,[13],active; positive
CC(=O)O[C@@]1(C)C(=O)OC/C2=C/CN(C)CC[C@@H](OC(=O)[C@]3(C[C@H]1C)O[C@@H]3C)C2=O,mutagenic call,"Test System: UDS RAT HEPATOCYTES, Strain/Indicator: THY INCORP, Metabolic Activation: NONE, Method: AUTORADIOGRAPHY",active; positive
CCNC(=O)/C=C/c1ccc([N+](=O)[O-])o1,mutagenic call,[5],active; positive
Nc1ccccc1-c1ccccc1,mutagenic call,"End Point: IN VITRO CHROMOSOMAL ABERRATIONS, Test System: CHO CELLS, Metabolic Activation: RAT, LIVER, S-9, AROCLOR 1254",inactive; negative
same,mutagenic call,"End Point: IN VITRO CHROMOSOMAL ABERRATIONS, Test System: CHO-WBL CELLS, Metabolic Activation: RAT, LIVER, S-9, PHENOBARBITAL AND BETA-NAPHTHOFLAVONE",active; positive (at 24 hr)
same,mutagenic call,[1],inactive; negative
same,mutagenic call,[2],inactive; negative
same,mutagenic call,[3],inactive; negative
same,mutagenic call,[4],inactive; negative
same,mutagenic call,[5],inactive; negative
same,mutagenic call,[14],inactive; negative
same,mutagenic call,"Test System: AMES SALMONELLA TYPHIMURIUM, Strain/Indicator: TA98, Metabolic Activation: RAT LIVER S-9, AROCLOR 1254, Method: PREINCUBATION",inactive; negative
same,mutagenic call,"Test System: AMES SALMONELLA TYPHIMURIUM, Strain/Indicator: TA98, Metabolic Activation: RAT, LIVER, S-9, AROCLOR 1254 (4%), Method: STANDARD PLATE",inactive; negative
same,mutagenic call,[6],inactive; negative
same,mutagenic call,[7],active; positive
same,mutagenic call,[8],inactive; negative
same,mutagenic call,[13],inactive; negative
same,mutagenic call,"Test System: AMES SALMONELLA TYPHIMURIUM, Strain/Indicator: TA100, Metabolic Activation: RAT LIVER S-9, AROCLOR 1254, Method: PREINCUBATION",inactive; negative
same,mutagenic call,[9],active; positive
same,mutagenic call,[10],inactive; negative
same,mutagenic call,[11],inactive; negative
same,mutagenic call,[12],inactive; negative
FC(F)(Cl)Cl,mutagenic call,"Test System: AMES SALMONELLA TYPHIMURIUM, Strain/Indicator: TA98, Metabolic Activation: NONE, Method: GAS EXPOSURE",inactive; negative
same,mutagenic call,"Test System: AMES SALMONELLA TYPHIMURIUM, Strain/Indicator: TA98, Metabolic Activation: RAT LIVER S-9, PHENOBARBITAL AND BETA-NAPHTHOFLAVONE (40%), Method: GAS EXPOSURE",inactive; negative
same,mutagenic call,"Test System: AMES SALMONELLA TYPHIMURIUM, Strain/Indicator: TA100, Metabolic Activation: NONE, Method: GAS EXPOSURE",inactive; negative
same,mutagenic call,"Test System: AMES SALMONELLA TYPHIMURIUM, Strain/Indicator: TA100, Metabolic Activation: RAT LIVER S-9, PHENOBARBITAL AND BETA-NAPHTHOFLAVONE (40%), Method: GAS EXPOSURE",inactive; negative
same,mutagenic call,"Test System: AMES SALMONELLA TYPHIMURIUM, Strain/Indicator: TA1535, Metabolic Activation: NONE, Method: GAS EXPOSURE",inactive; negative
same,mutagenic call,"Test System: AMES SALMONELLA TYPHIMURIUM, Strain/Indicator: TA1535, Metabolic Activation: RAT LIVER S-9, PHENOBARBITAL AND BETA-NAPHTHOFLAVONE (40%), Method: GAS EXPOSURE",inactive; negative
same,mutagenic call,"Test System: AMES SALMONELLA TYPHIMURIUM, Strain/Indicator: TA1537, Metabolic Activation: NONE, Method: GAS EXPOSURE",inactive; negative
same,mutagenic call,"Test System: AMES SALMONELLA TYPHIMURIUM, Strain/Indicator: TA1537, Metabolic Activation: RAT LIVER S-9, PHENOBARBITAL AND BETA-NAPHTHOFLAVONE (40%), Method: GAS EXPOSURE",inactive; negative
same,mutagenic call,"Test System: E.COLI, Strain/Indicator: WP2UVRA, Metabolic Activation: NONE, Method: GAS EXPOSURE",inactive; negative
same,mutagenic call,"Test System: E.COLI, Strain/Indicator: WP2UVRA, Metabolic Activation: RAT LIVER S-9, PHENOBARBITAL AND BETA-NAPHTHOFLAVONE (40%), Method: GAS EXPOSURE",inactive; negative
O=[N+]([O-])c1ccc2cc3c(cc2c1)C=C[C@@H](O)[C@@H]3O,mutagenic call,[14],active; positive
same,mutagenic call,"Test System: AMES SALMONELLA TYPHIMURIUM, Strain/Indicator: TA98, Metabolic Activation: RAT, LIVER, S-9, AROCLOR 1254, Method: STANDARD PLATE",active; positive
